Source: patent US20230123334A1, “AMINO LIPID COMPOUND, PREPARATION METHOD THEREFOR, AND APPLICATION THEREOF” (SHENZHEN SHENXIN BIOTECHNOLOGY CO., LTD., priority 2020, published 2023)

Columns and labels:
HEK293 cells [1] = assay: Preliminary screening as DNA vectors, GFP transfection of HEK293 cells; type: cell-based; conditions: HEK293 cells; lipid/DOPE liposome with 75 ng plasmid DNA (psin-EGFP-IRES-Puro); number of cells expressing GFP divided by total number of nuclei (Hoechst)
Procedure, shortened: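 HEK293 cells in DMEM/10% FBS transfected with 75 ng EGFP plasmid per well complexed with amino lipid/DOPE liposomes in pH 5.6 sodium acetate. Hoechst nuclear stain added 20-24 h post-transfection, then cells cultured another 20-24 h. Confocal imaging gives GFP-positive cells as % of total nuclei.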

HEK293 cells [2] = assay: Preliminary screening as mRNA vectors, EGFP mRNA transfection of HEK293 cells; type: cell-based; conditions: HEK293 cells, 96-well plates, EGFP mRNA 50 ng per well; percentage of GFP fluorescent cells relative to total number of cells (Hoechst)
Procedure, shortened: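 HEK293 cells in DMEM plus 10% FBS transfected in 96-well format with 50 ng EGFP mRNA per well; Lipofectamine2000 served as positive control. Read-out is the percentage of GFP-fluorescent cells among total cells, counted by Hoechst nuclear stain.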

SMILES | Absolute DNA transfection efficiency in HEK293 cells (HEK293 cells [1]) [%] | Absolute mRNA transfection efficiency in HEK293 cells (HEK293 cells [2]) [%]
CCCCCCCCCCCCCNc1nc(NCCCCCCCCCCCCC)nc(NCCCN2CCN(C)CC2)n1 [Compound N13N13D9] | 1.1 | 0.2
CCCCCCCCCCCCCNc1nc(NCCCCCCCCCCCCC)nc(NCC2CCN(C)CC2)n1 [Compound N13N13D10] | 0.3 | 2.9
CCCCCCCCCCCCCCCNc1nc(NCCCCCCCCCCCCC)nc(NCCN(C)C)n1 [Compound N13N15D1] | 1.5 | 1.4
CCCCCCCCCCCCCCCNc1nc(NCCCCCCCCCCCCC)nc(NCCN2CCOCC2)n1 [Compound N13N15D2] | 0.0 | 1.4
CCCCCCCCCCCCCCCNc1nc(NCCCCCCCCCCCCC)nc(NCCN2CCCC2)n1 [Compound N13N15D3] | 1.4 | 4.7
CCCCCCCCCCCCCCCNc1nc(NCCCCCCCCCCCCC)nc(NCCN2CCCCC2)n1 [Compound N13N15D4] | 0.0 | 0.0
CCCCCCCCCCCCCCCNc1nc(NCCCCCCCCCCCCC)nc(NCCN2CCN(C)CC2)n1 [Compound N13N15D5] | 0.2 | 0.8
CCCCCCCCCCCCCCCNc1nc(NCCCCCCCCCCCCC)nc(NCCCN(C)C)n1 [Compound N13N15D6] | 0.3 | 0.0
CCCCCCCCCCCCCCCNc1nc(NCCCCCCCCCCCCC)nc(NCCN(CC)CC)n1 [Compound N13N15D7] | 0.8 | 3.7
CCCCCCCCCCCCCCCNc1nc(NCCCCCCCCCCCCC)nc(NCCCN2CCOCC2)n1 [Compound N13N15D8] | 0.0 | 0.0
CCCCCCCCCCCCCCCNc1nc(NCCCCCCCCCCCCC)nc(NCCCN2CCN(C)CC2)n1 [Compound N13N15D9] | 0.2 | 0.5
CCCCCCCCCCCCCCCNc1nc(NCCCCCCCCCCCCC)nc(NCC2CCN(C)CC2)n1 [Compound N13N15D10] | 0.0 | 0.4
CCCCCCCCCCCCCCCCNc1nc(NCCCCCCCCCCCCC)nc(NCCN(C)C)n1 [Compound N13N16D1] | 0.8 | 1.5
CCCCCCCCCCCCCCCCNc1nc(NCCCCCCCCCCCCC)nc(NCCN2CCOCC2)n1 [Compound N13N16D2] | 0.0 | 1.4
CCCCCCCCCCCCCCCCNc1nc(NCCCCCCCCCCCCC)nc(NCCN2CCCC2)n1 [Compound N13N16D3] | 0.4 | 1.6
CCCCCCCCCCCCCCCCNc1nc(NCCCCCCCCCCCCC)nc(NCCN2CCCCC2)n1 [Compound N13N16D4] | 1.0 | 4.0
CCCCCCCCCCCCCCCCNc1nc(NCCCCCCCCCCCCC)nc(NCCN2CCN(C)CC2)n1 [Compound N13N16D5] | 0.0 | 0.4
CCCCCCCCCCCCCCCCNc1nc(NCCCCCCCCCCCCC)nc(NCCCN(C)C)n1 [Compound N13N16D6] | 1.0 | 3.8
CCCCCCCCCCCCCCCCNc1nc(NCCCCCCCCCCCCC)nc(NCCN(CC)CC)n1 [Compound N13N16D7] | 1.5 | 0.6
CCCCCCCCCCCCCCCCNc1nc(NCCCCCCCCCCCCC)nc(NCCCN2CCOCC2)n1 [Compound N13N16D8] | 0.0 | 3.3
CCCCCCCCCCCCCCCCNc1nc(NCCCCCCCCCCCCC)nc(NCCCN2CCN(C)CC2)n1 [Compound N13N16D9] | 0.0 | 1.4
CCCCCCCCCCCCCCCCNc1nc(NCCCCCCCCCCCCC)nc(NCC2CCN(C)CC2)n1 [Compound N13N16D10] | 0.0 | 1.1
CCCCCCCCCCCCCCCCCCNc1nc(NCCCCCCCCCCCCC)nc(NCCN(C)C)n1 [Compound N13N18D1] | 2.7 | 13.8

SMILES | Absolute DNA transfection efficiency in HEK293 cells (HEK293 cells [1]) [%] | Absolute mRNA transfection efficiency in HEK293 cells (HEK293 cells [2]) [%]
CCCCCCCCCCCCCCCCCCNc1nc(NCCCCCCCCCCCCC)nc(NCCN2CCOCC2)n1 [Compound N13N18D2] | 0.2 | 0.0
CCCCCCCCCCCCCCCCCCNc1nc(NCCCCCCCCCCCCC)nc(NCCN2CCCC2)n1 [Compound N13N18D3] | 0.5 | 21.5
CCCCCCCCCCCCCCCCCCNc1nc(NCCCCCCCCCCCCC)nc(NCCN2CCCCC2)n1 [Compound N13N18D4] | 1.8 | 3.1
CCCCCCCCCCCCCCCCCCNc1nc(NCCCCCCCCCCCCC)nc(NCCN2CCN(C)CC2)n1 [Compound N13N18D5] | 0.2 | 0.7
CCCCCCCCCCCCCCCCCCNc1nc(NCCCCCCCCCCCCC)nc(NCCCN(C)C)n1 [Compound N13N18D6] | 3.0 | 14.7
CCCCCCCCCCCCCCCCCCNc1nc(NCCCCCCCCCCCCC)nc(NCCN(CC)CC)n1 [Compound N13N18D7] | 3.7 | 1.3
CCCCCCCCCCCCCCCCCCNc1nc(NCCCCCCCCCCCCC)nc(NCCCN2CCOCC2)n1 [Compound N13N18D8] | 0.0 | 0.0
CCCCCCCCCCCCCCCCCCNc1nc(NCCCCCCCCCCCCC)nc(NCCCN2CCN(C)CC2)n1 [Compound N13N18D9] | 1.1 | 0.8
CCCCCCCCCCCCCCCCCCNc1nc(NCCCCCCCCCCCCC)nc(NCC2CCN(C)CC2)n1 [Compound N13N18D10] | 0.5 | 6.1
CCCCCCCCCCCCCCCNc1nc(NCCCCCCCCCCCCCCC)nc(NCCN(C)C)n1 [Compound N15N15D1] | 2.3 | 0.0
CCCCCCCCCCCCCCCNc1nc(NCCCCCCCCCCCCCCC)nc(NCCN2CCOCC2)n1 [Compound N15N15D2] | 0.0 | 0.0
CCCCCCCCCCCCCCCNc1nc(NCCCCCCCCCCCCCCC)nc(NCCN2CCCC2)n1 [Compound N15N15D3] | 1.8 | 3.8
CCCCCCCCCCCCCCCNc1nc(NCCCCCCCCCCCCCCC)nc(NCCN2CCCCC2)n1 [Compound N15N15D4] | 1.3 | 0.8
CCCCCCCCCCCCCCCNc1nc(NCCCCCCCCCCCCCCC)nc(NCCN2CCN(C)CC2)n1 [Compound N15N15D5] | 0.9 | 0.0
CCCCCCCCCCCCCCCNc1nc(NCCCCCCCCCCCCCCC)nc(NCCCN(C)C)n1 [Compound N15N15D6] | 1.5 | 0.0
CCCCCCCCCCCCCCCNc1nc(NCCCCCCCCCCCCCCC)nc(NCCN(CC)CC)n1 [Compound N15N15D7] | 0.5 | 0.0
CCCCCCCCCCCCCCCNc1nc(NCCCCCCCCCCCCCCC)nc(NCCCN2CCOCC2)n1 [Compound N15N15D8] | 0.0 | 0.0
CCCCCCCCCCCCCCCNc1nc(NCCCCCCCCCCCCCCC)nc(NCCCN2CCN(C)CC2)n1 [Compound N15N15D9] | 0.4 | 0.0
CCCCCCCCCCCCCCCNc1nc(NCCCCCCCCCCCCCCC)nc(NCC2CCN(C)CC2)n1 [Compound N15N15D10] | 1.1 | 4.2
CCCCCCCCCCCCCCCCNc1nc(NCCCCCCCCCCCCCCC)nc(NCCN(C)C)n1 [Compound N15N16D1] | 1.8 | 3.6
CCCCCCCCCCCCCCCCNc1nc(NCCCCCCCCCCCCCCC)nc(NCCN2CCOCC2)n1 [Compound N15N16D2] | 0.0 | 0.0
CCCCCCCCCCCCCCCCNc1nc(NCCCCCCCCCCCCCCC)nc(NCCN2CCCC2)n1 [Compound N15N16D3] | 2.5 | 6.1
CCCCCCCCCCCCCCCCNc1nc(NCCCCCCCCCCCCCCC)nc(NCCN2CCCCC2)n1 [Compound N15N16D4] | 1.9 | 1.6
